From a melting point compilation (Tetko et al.; mined from patent text by program, amines drawn as free bases though some values may be those of a salt)

Row | Structure (SMILES) | melting point [°C]
1 | S=C(NCc1cccc(Cl)c1)N1CCc2c([nH]c3ccccc23)C1c1ccc2c(c1)OCO2 (stereo unspecified) | 189 to 191
2 | Cc1ccc2nc(-c3ccc(C#N)cc3)cn2c1 | 225 to 226
3 | O=C(NC1(O)CC1)c1ccccc1 | 153 to 155
4 | COCn1c(-c2nccs2)c(Cl)c2cccc([N+](=O)[O-])c21 | 106 to 107
5 | c1ccc(CNc2nc3cc(-c4ccccc4)nnc3c3ccccc23)cc1 | 207 to 209
6 | O=C(O)c1cc(=O)cc(-c2ccc(OCc3ccccc3)cc2)o1 | 235
7 | CCCCCCCC(=O)c1cc2sc3sccc3c2s1 | 130 to 131
8 | OC(C1=NCCN1)(c1ccccn1)c1cccs1 (stereo unspecified) | 151 to 152
9 | COc1cccc(CN2CCN(CCCOc3ccc4c(C)cc(=O)[nH]c4c3)CC2)c1 | 149 to 150
10 | O=C1NCCN1S(=O)(=O)c1ccc(F)cc1 | 183 to 185
11 | COc1ccccc1N1CCN(CCC(C(N)=O)(c2ccccn2)c2ccccc2[N+](=O)[O-])CC1 (stereo unspecified) | 63 to 72
12 | O=C(O)C1COC(C(F)(F)F)(C(F)(F)F)O1 (stereo unspecified) | 62 to 63
13 | CC(=O)c1ccc(Oc2ccc(F)cc2)cc1 | 65 to 67
14 | O=Cc1ccn(-c2c(Cl)cc(C(F)(F)F)cc2Cl)c(=O)c1 | 115 to 117
15 | CCCn1nc2c(N)nc3ccccc3c2c1CC(C)(C)NC(=O)C1CCCCC1 | 190 to 191
16 | O=C(c1ccccc1)c1ccc(OCC(O)COCCCCCCCCOCC(O)COc2ccc(C(=O)c3ccccc3)c(O)c2)cc1O (stereo unspecified) | 74
17 | NC(=O)c1ccc(OC2CCN(Cc3ccccc3)CC2)cc1 | 166 to 168
18 | CN(C)c1cccc2c(S(=O)(=O)Nc3ncc(Cl)cc3Cl)cccc12 | 161 to 163
19 | ON=Cc1cccc(OCCN2CCC(Cc3ccccc3)CC2)c1 | 141 to 143
20 | CC(=NOCCOS(C)(=O)=O)c1ccc(-c2ccc(F)cc2)cc1 | 103 to 106
21 | CSCn1c(Br)c(Br)c(C#N)c1-c1ccc(C(F)(F)F)cc1 | 140 to 145
22 | Cc1ccc(S(=O)(=O)Nc2ccc(-c3ccc(S(=O)(=O)n4ccc(C=CC(=O)NO)c4)cc3)cc2)cc1 | 119 to 126
23 | CCN1CC(OCC=C(C)C)(C(F)(F)F)c2cc(Cl)ccc2NC1=O (stereo unspecified) | 158 to 160
24 | COc1ccc(C(=O)Cc2c(Cl)cncc2Cl)c2c1OCCCCO2 | 142 to 143

Row | Structure (SMILES) | melting point [°C]
25 | Cc1nc(-c2ccc(Cl)cc2)c(CC(Cl)C(=O)O)o1 (stereo unspecified) | 208 to 209
26 | CC(C)C(c1ccc(N)cc1)n1cncn1 (stereo unspecified) | 118
27 | COc1nc(SC)nc(OC)c1C=CC(C)=O | 112
28 | COc1ccc(N2C(=O)C(O[Si](C(C)C)(C(C)C)C(C)C)C2c2ccc(F)cc2)cc1 (stereo unspecified) | 121 to 122
29 | Nc1cccc(NC(=O)Nc2ccc(N(CCCl)CCCl)cc2)c1 | 182 to 183
30 | Nc1noc2cccc(OCCBr)c12 | 105 to 107
31 | O=C(Cc1ccc(Cl)c(Cl)c1)N1CCN(Cc2ccccc2)CC1CO (stereo unspecified) | 148 to 150
32 | COC1(OC)C(NC(=O)c2ccccc2O)=CC(=O)C2OC21 (stereo unspecified) | 147 to 149
33 | O=C(O)c1ccc2oc(=O)n(Cc3ccc4[nH]c(=O)[nH]c4c3)c2c1 | 230 to 231
34 | CC1Oc2ccc(C3=NNC(=O)CC3)cc2NC1=O (stereo unspecified) | 275 to 276
35 | O=C(NC1C(=O)N(CC23CC4CC(CC(C4)C2)C3)c2ccc(F)cc2N(c2ccccc2)C1=O)Oc1ccccc1 (stereo unspecified) | 156 to 159
36 | CCN1CCCC1CNC(=O)c1cc(N(C#N)S(C)(=O)=O)ccc1OC (stereo unspecified) | 50 to 54
37 | O=S1(=O)CCON=C1c1c(Cl)cccc1Cl | 180 to 182
38 | Cn1nnnc1-c1nccn1Cc1ccccc1 | 110 to 111
39 | COC(=O)c1nc2cccc(C(F)(F)F)c2c(O)c1C(=O)OC | 180 to 182
40 | Cc1cc2nc(O)nc(O)c2s1 | > 300
41 | O=C(NCCCSc1ccccn1)c1cccs1 | 81 to 82
42 | CC(C)N(CC(O)CC(c1ccccc1)c1ccccc1)C(C)C (stereo unspecified) | 55 to 59
43 | N#CC1(c2ccccc2)CCN(C(=O)N2CCCc3ccccc32)CC1 | 53 to 59
44 | CC(C)(C)c1ccc(/C=C/C(=O)Nc2ccc3occc3c2)cc1 | 149 to 150
45 | Cc1ccc(S(=O)(=O)n2cncn2)cc1 | 105 to 107
46 | CC(c1oc2ccccc2c(=O)c1-c1cccc(F)c1)n1nc(-c2ccc(OCc3ccccc3)cc2)c2c(N)ncnc21 (stereo unspecified) | 176 to 178
47 | Cc1oc(-c2ccccc2)nc1COc1ccc(OCc2ncccc2CC#N)cc1 | 134 to 135
48 | CN(C)CCC(=O)N1Cc2cccc3c2N(CC3)c2ccccc21 | 91 to 92.5

Row | Structure (SMILES) | melting point [°C]
49 | Cc1ccc2cc(NC(=O)c3cccc(SCc4cc(Nc5ccccc5)n[nH]4)c3)ccc2n1 | 172 to 174
50 | Fc1ccc(Cn2c(NC3CCN(CCn4c(=S)[nH]c5ccccc54)CC3)nc3ccccc32)cc1 | 235
51 | Cn1nc(C(=O)NCc2ccc(Cl)cc2)c(=O)c2cc(CO)ccc21 | 203 to 205
52 | COC(=O)C1=C(C)NC(C)=C(C(=O)OCC2CC2)C1c1cccc([N+](=O)[O-])c1 (stereo unspecified) | 160 to 163
53 | CCCOc1ccc(SC(C)(C)C)cc1C(N)=O | 136 to 138
54 | CSc1ncc(CNc2ccccc2Cl)c(Nc2ccccc2)n1 | 131 to 132
55 | COc1ccc(Oc2cccc(C3C4=C(CC(C)(C)CC4=O)NC4=C3C(=O)CC(C)(C)C4)c2)cc1 | 210 to 212
56 | CC(C)n1nc(-c2sc(C(=O)N3CCCC3)nc2-c2ccccc2)ccc1=O | 169 to 170
57 | Cc1nc(-c2ccccc2)nc(N2c3ccccc3CC2C(=O)N(C)c2ccc(Cl)cc2)c1C (stereo unspecified) | 236 to 238
58 | CCCc1cnc(N2CCC(c3ccc(COc4ccc(C#N)c(F)c4)nc3)CC2)nc1 | 118 to 120
59 | COC(=O)c1ccccc1-c1cc(F)cc(OCc2ccc3c(-c4ccoc4)cc(C#N)nc3c2)c1 | 152 to 154
60 | CN1C(=O)CC[C@]2(C)c3ccc(-c4ccc5c(c4)C(=O)C(=O)N5)cc3CC[C@@H]12 | > 250
61 | O=C(Nc1ccc(C(CC2CCCC2)C(=O)Nc2nccs2)cc1)c1ccc([N+](=O)[O-])cc1 (stereo unspecified) | 236 to 238
62 | Cn1ncc(N)c1C(N)=O | 158 to 160
63 | NC(=O)c1c(Cl)c(-c2ccccc2)n2c1CN(S(=O)(=O)c1ccccc1F)CC2 | 239 to 240
64 | Cc1ccccc1-c1nc2n(c1Br)-c1cccnc1Nc1ccccc1-2 | 220 to 222
65 | CC(C)(C)OC(=O)Nc1ccc(Br)cc1 | 101 to 103
66 | O=C(O)CC1Cc2cccc3cccc1c23 (stereo unspecified) | 123
67 | O=CNCCCCCCO | 43.5 to 45
68 | O=C(Nc1ccc(C(F)(F)F)cc1)N1CC2CCc3cc(Cl)ccc3C2=N1 (stereo unspecified) | 196 to 199
69 | NC[C@@H]1CN(c2nc3c(cc2F)c(=O)c(C(=O)O)cn3C2CC2)C[C@@H]1F (relative stereo) | 217 to 218
70 | CCOC(=O)CC(O)CC(O)C=Cc1c(C(C)C)oc(-c2ccccc2)c1-c1ccc(F)cc1 (stereo unspecified) | 98 to 100
71 | CCOCc1nc2c(N)nc3ccccc3c2n1CCNC(=O)OC(C)(C)C | 201 to 202
